# Activity calls are given as the source filed them. The rule behind the calls is not given here.
# What was measured:
# Staphylococcus aureus = assay: Antibacterial activity against Staphylococcus aureus DSM346 assessed as inhibition of bacterial growth by broth microdilution method; type: functional
# L929 = assay: Cytotoxicity against mouse L929 cells assessed as cell growth inhibition incubated for 5 days by MTT assay; type: functional, cell-based; details: time 5.0 day
# KB 3-1 = assay: Cytotoxicity against human KB 3-1 cells assessed as cell growth inhibition incubated for 5 days by MTT assay; type: functional, cell-based; details: time 5.0 day
# A-431 = assay: Cytotoxicity against human A-431 cells assessed as cell growth inhibition incubated for 5 days by MTT assay; type: functional, cell-based; details: time 5.0 day
# A549 = assay: Cytotoxicity against human A549 cells assessed as cell growth inhibition incubated for 5 days by MTT assay; type: functional, cell-based; details: time 5.0 day
# SK-OV-3 = assay: Cytotoxicity against human SK-OV-3 cells assessed as cell growth inhibition incubated for 5 days by MTT assay; type: functional, cell-based; details: time 5.0 day
# PC-3 = assay: Cytotoxicity against human PC-3 cells assessed as cell growth inhibition incubated for 5 days by MTT assay; type: functional, cell-based; details: time 5.0 day
# MCF7 = assay: Cytotoxicity against human MCF7 cells assessed as cell growth inhibition incubated for 5 days by MTT assay; type: functional, cell-based; details: time 5.0 day
# Candida albicans = assay: Antifungal activity against Candida albicans DSM1665 assessed as inhibition of fungal growth by broth microdilution method; type: functional, organism-based
# Mucor hiemalis = assay: Antifungal activity against Mucor hiemalis DSM2656 assessed as inhibition of fungal growth by broth microdilution method; type: functional, organism-based
# Wickerhamomyces anomalus = assay: Antifungal activity against Pichia anomala DSM6766 assessed as inhibition of fungal growth by broth microdilution method; type: functional, organism-based
# Rhodotorula glutinis = assay: Antifungal activity against Rhodotorula glutinis DSM1034 assessed as inhibition of fungal growth by broth microdilution method; type: functional, organism-based
# [1] = system: Schizosaccharomyces pombe; assay: Antifungal activity against Schizosaccharomyces pombe DSM70572 assessed as inhibition of fungal growth by broth microdilution method; type: functional, organism-based
# [2] = system: Mycolicibacterium smegmatis; assay: Antimycobacterial activity against Mycobacterium smegmatis ATCC700084 assessed as inhibition of mycobacterial growth by broth microdilution method; type: functional
# Bacillus subtilis = assay: Antibacterial activity against Bacillus subtilis DSM10 assessed as inhibition of bacterial growth by broth microdilution method; type: functional
# [3] = system: Chromobacterium violaceum; assay: Antibacterial activity against Chromobacterium violaceum DSM30191 assessed as inhibition of bacterial growth by broth microdilution method; type: functional
# Escherichia coli = assay: Antibacterial activity against Escherichia coli DSM1116 assessed as inhibition of bacterial growth by broth microdilution method; type: functional
# Kocuria rhizophila = assay: Antibacterial activity against Kocuria rhizophila DSM1790 assessed as inhibition of bacterial growth by broth microdilution method; type: functional
Compound,MIC (Staphylococcus aureus) [µg/mL],Activity (L929),Activity (KB 3-1),Activity (A-431),Activity (A549),Activity (SK-OV-3),Activity (PC-3),Activity (MCF7),also measured
O=C(O)C[C@H](O)C1(c2cccc(O)c2O)Oc2cccc3cccc(c23)O1,66.6,inactive,inactive,inactive,inactive,inactive,inactive,inactive,
NYSTATIN,,,,,,,,,MIC (Candida albicans): 2.1 µg/mL; MIC (Mucor hiemalis): 8.3 µg/mL; MIC (Wickerhamomyces anomalus): 2.1 µg/mL; MIC (Rhodotorula glutinis): 1 µg/mL; MIC [1]: 16.7 µg/mL
COC(=O)C[C@H](O)C1(c2cccc(O)c2O)Oc2cccc3cccc(c23)O1,66.6,inactive,inactive,inactive,inactive,inactive,inactive,inactive,
NC[C@H]1O[C@H](O[C@H]2[C@H](O)[C@@H](O[C@H]3O[C@H](CO)[C@@H](O)[C@H](N)[C@H]3O)[C@H](N)C[C@@H]2N)[C@H](N)[C@@H](O)[C@@H]1O [BEKANAMYCIN],,,,,,,,,MIC [2]: 2.1 µg/mL
CN(C)[C@@H]1C(O)=C(C(N)=O)C(=O)[C@@]2(O)C(O)=C3C(=O)c4c(O)cccc4[C@@](C)(O)[C@H]3[C@H](O)[C@@H]12.Cl [OXYTETRACYCLINE HYDROCHLORIDE],0.1,,,,,,,,MIC (Bacillus subtilis): 4.2 µg/mL; MIC [3]: 0.4 µg/mL; MIC (Escherichia coli): 1.7 µg/mL; MIC (Kocuria rhizophila): 0.4 µg/mL

# From ChEMBL document CHEMBL4842333, “Catechol-Bearing Polyketide Derivatives from Sparticola junci” (2021)
